Assay results from patent publication EP0540782B1, “Use of analogues of polyisoprenyl pyrophosphate for inhibiting protein isoprenylation” (NEDERLANDSE ORGANISATIE VOOR …, priority 1991, dated 1993).

Assays:
[1] = target: farnesyl: protein transferase (Oryctolagus cuniculus, UniProt G1SFC8+G1T7D9); assay: Inhibition of farnesylation of p21ras precursor (H-ras protein) by farnesyl: protein transferase in rabbit reticulocyte lysate, [3H]-FPP incorporation; conditions: read-out: IC50-values, H-ras protein 30 µg/ml, 1 µM [3H]-farnesyl pyrophosphate, 37°C for 30 min
squalene synthase = target: T1, squalene synthase (Rattus norvegicus, UniProt Q02769); assay: Inhibition of squalene synthase in rat liver microsomal preparations; format: biochemical
T1 construct: squalene synthase in rat liver microsomal preparations; from tissue; host or cells: rat liver microsomes
T1 sequence (Q02769 1-416): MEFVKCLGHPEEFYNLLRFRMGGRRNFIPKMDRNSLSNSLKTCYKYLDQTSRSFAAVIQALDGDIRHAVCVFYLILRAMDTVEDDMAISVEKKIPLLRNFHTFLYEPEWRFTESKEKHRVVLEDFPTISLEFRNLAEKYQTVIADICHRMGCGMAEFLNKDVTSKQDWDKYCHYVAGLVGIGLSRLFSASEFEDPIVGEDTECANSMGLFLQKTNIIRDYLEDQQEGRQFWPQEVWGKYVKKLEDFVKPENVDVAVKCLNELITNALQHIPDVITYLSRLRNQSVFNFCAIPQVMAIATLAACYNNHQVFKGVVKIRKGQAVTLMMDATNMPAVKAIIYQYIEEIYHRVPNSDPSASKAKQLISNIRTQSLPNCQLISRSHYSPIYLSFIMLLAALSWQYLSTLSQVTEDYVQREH

farnesyl: protein transferase, sequence (G1T7D9 entry or part of it, one chain of several): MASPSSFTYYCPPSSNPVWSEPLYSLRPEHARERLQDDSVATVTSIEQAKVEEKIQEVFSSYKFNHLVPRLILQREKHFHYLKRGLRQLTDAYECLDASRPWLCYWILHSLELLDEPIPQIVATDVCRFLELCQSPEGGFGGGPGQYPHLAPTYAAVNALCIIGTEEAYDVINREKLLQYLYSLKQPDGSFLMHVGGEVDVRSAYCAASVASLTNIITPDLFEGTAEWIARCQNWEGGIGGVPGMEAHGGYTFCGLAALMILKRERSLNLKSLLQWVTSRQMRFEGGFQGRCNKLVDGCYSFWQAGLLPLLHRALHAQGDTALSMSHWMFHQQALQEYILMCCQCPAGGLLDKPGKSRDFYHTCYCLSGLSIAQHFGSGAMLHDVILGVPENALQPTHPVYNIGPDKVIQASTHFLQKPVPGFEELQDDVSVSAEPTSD

| Compound | IC50 [1] | IC50 (squalene synthase) |
| --- | --- | --- |
| CC(C)=CCCC(C)=CCCC(C)=CCCP(=O)(O)OP(=O)(O)O [compound 1, farnesylmethylphosphonophosphate] | 4 µM | 480 µM |
| CC(C)=CCCC(C)=CCCC(C)=CCP(=O)(O)OP(=O)(O)O [compound 3, farnesylphosphonophosphate] | < 1 µM | 120 µM |
